Data: ChEMBL document CHEMBL4507314 (2021)
Active and inactive are the calls of the source. No cut-off for these calls is given here.

Tests used:
[1] = biological target: Mitogen-activated protein kinase 11 (Homo sapiens, UniProt Q15759); test: NanoBRET (MAPK11)
[2] = biological target: Heat shock protein beta-1 (Homo sapiens, UniProt P04792); test: Inhibition of HSP27 (Ser82) (Western blot)
[3] = biological target: Mitogen-activated protein kinase 14 (Homo sapiens, UniProt Q16539); test: NanoBRET (MAPK14)
Mitogen-activated protein kinase 14, sequence (Q16539 whole entry): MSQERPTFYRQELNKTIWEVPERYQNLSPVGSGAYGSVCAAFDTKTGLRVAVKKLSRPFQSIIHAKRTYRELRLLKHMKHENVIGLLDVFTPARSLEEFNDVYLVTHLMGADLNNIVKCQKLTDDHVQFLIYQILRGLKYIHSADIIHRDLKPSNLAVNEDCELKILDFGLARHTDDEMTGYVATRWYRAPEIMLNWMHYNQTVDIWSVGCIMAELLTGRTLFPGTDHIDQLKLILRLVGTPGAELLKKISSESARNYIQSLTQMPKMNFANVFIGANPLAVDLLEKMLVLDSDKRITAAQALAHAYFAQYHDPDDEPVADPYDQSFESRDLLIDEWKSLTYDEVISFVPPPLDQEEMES

Mitogen-activated protein kinase 11, sequence (Q15759 whole entry): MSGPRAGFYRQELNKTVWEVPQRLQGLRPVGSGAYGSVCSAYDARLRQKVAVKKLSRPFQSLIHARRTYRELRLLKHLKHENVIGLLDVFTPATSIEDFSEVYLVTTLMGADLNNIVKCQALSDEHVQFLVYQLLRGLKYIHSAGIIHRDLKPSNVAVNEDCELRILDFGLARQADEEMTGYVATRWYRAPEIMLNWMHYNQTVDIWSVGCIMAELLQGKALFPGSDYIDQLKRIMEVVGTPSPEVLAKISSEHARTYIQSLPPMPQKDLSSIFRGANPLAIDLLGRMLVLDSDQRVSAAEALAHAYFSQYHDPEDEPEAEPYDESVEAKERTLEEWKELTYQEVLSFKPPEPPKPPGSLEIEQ
Heat shock protein beta-1, sequence (P04792 whole entry): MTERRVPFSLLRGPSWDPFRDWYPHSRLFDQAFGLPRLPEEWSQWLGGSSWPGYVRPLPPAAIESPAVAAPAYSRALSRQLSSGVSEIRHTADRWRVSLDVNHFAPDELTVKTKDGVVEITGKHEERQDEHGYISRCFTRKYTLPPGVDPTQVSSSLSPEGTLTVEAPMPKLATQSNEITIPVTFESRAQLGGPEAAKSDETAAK

IC50 [1] | IC50 [2] | IC50 [3] | Compound
0.0169 µM (active) | < 1 µM (active) | – | O=C(NCCN1CCOCC1)c1ccc2c(c1)C(=O)c1ccc(Nc3ccc(F)c(NC(=O)c4ccccc4)c3)cc1CC2 [FS-694]
16.2 µM (not active) | – | 11.3 µM (not active) | CN(C(=O)c1ccccc1)c1cc(N(C)c2ccc3c(c2)CCc2ccc(C(=O)NCCN4CCOCC4)cc2C3=O)ccc1F [FM-743]
